The subject of the assay is NIH-MDR1-G185 cells. Kind of assay: Fluorescent Substrate Accumulation Assay (BODIPY-FL Taxol accumulation). The format is cell-based. Conditions: fluorescence in NIH-MDR1-G185 cells in presence / absence of modulator; BODIPY-FL Taxol 500 nM, 40 min at 37° C; modulator final concentration of 10 microliters (so in the source). On the procedure: NIH-MDR1-G185 cells (obtained from M. Gottesman, NIH) were harvested and resuspended in RPMI-1640 containing L-glutamine, 10% Cosmic Calf Serum and penicillin-streptomycin. Cell suspension aliquots of 175 microliters (1×10^5 cells) were added to individual wells of a 96 well microtiter plate and preincubated for 15 min at 37° C with 20 microliters MDR modulator diluted in cell culture media to give a final concentration of 10 microliters. Control wells received no modulating agent. BODIPY-FL Taxol (Molecular Probes, Eugene, Oreg.) was added to each well in 10 microliter aliquots to give a final concentration of 500 nM and cells were incubated for 40 min at 37° C. Cells were centrifuged at 100× g for 5 min at 4° C. and the cell pellet washed with 200 microliters cold PBS to remove fluorescent medium from wells. Cells were centrifuged once more, media removed, and cells resuspended in 200 microliters cold PBS. Fluorescence accumulation was measured in a fluorescence plate reader fitted with an excitation filter of 485 nm and an emission filter of 538 nm. BODIPY-FL taxol accumulation in the cells was calculated as follows:
Accumulation Index=(fluorescence in NIH-MDR1-G185 cells in the presence of modulator )/(fluorescence in NIH-MDR1-G185 cells in absence of modulator)
Accumulation Index of various compounds prepared above was tested according to the method in Reference Example 3.

SMILES strings stand for the structures.

Regarding `O=C(NC(CCCc1ccccc1)CCCc1ccccc1)C1CN(C[C@@H](O)COc2cccc3ncccc23)CCN1C(=O)COCc1ccccc1` (stereo partly drawn) [Compound 38, 1-(Benzyloxyacetyl)-4-{1-[2-(R)-hydroxy-3-(quinolin-5-yloxy)-propyl]}-piperazine-2-carboxylic Acid [4-phenyl-1-(3-phenyl-propyl)-butyl]-amide], the “Accumulation Index” value was 5.

The record behind these values is patent publication US20020128269A1, “Substituted heterocyclic compounds for treating multidrug resistance” (priority 2000, published 2002).
